Measurements from the kinase profiling compilation of Christmann-Franck et al. (2016).
Blank lines part the entries; values can stand above or below the compound they belong to.

Key:
Assay in all cases: radiometric filter-binding kinase assay
IKBKB (human) = IKBKB (human) (UniProt O14920)
GCK (human) = GCK (human) (UniProt Q12851)
[1] = test system: AKT1 (human), P31749 [S473D]
EPHB2 (human) = EPHB2 (human) (UniProt P29323)
LCK (mouse) = details: accession and sequence are those of the human protein
PAK6 (human) = PAK6 (human) (UniProt Q9NQU5)
CDK2 CCNA2 (human) = CDK2 CCNA2 (human) (UniProt P20248+P24941)
MAPK10 (human) = MAPK10 (human) (UniProt P53779)
EPHA4 (human) = EPHA4 (human) (UniProt P54764)
PKN2 (human) = PKN2 (human) (UniProt Q16513)
MAPK8 (human) = MAPK8 (human) (UniProt P45983)
MYLK (human) = MYLK (human) (UniProt Q15746)
NUAK1 (human) = NUAK1 (human) (UniProt O60285)
CHEK2 (human) = CHEK2 (human) (UniProt O96017)
RPS6KA3 KD1 KD2 (human) = RPS6KA3 KD1 KD2 (human) (UniProt P51812)
EPHB3 (human) = EPHB3 (human) (UniProt P54753)
ROCK2 (rat) = details: accession and sequence are those of the human protein
SRC (human) = SRC (human) (UniProt P12931)
TBK1 (human) = TBK1 (human) (UniProt Q9UHD2)
Chain of TBK1 (human) (Q9UHD2 whole entry, looked up): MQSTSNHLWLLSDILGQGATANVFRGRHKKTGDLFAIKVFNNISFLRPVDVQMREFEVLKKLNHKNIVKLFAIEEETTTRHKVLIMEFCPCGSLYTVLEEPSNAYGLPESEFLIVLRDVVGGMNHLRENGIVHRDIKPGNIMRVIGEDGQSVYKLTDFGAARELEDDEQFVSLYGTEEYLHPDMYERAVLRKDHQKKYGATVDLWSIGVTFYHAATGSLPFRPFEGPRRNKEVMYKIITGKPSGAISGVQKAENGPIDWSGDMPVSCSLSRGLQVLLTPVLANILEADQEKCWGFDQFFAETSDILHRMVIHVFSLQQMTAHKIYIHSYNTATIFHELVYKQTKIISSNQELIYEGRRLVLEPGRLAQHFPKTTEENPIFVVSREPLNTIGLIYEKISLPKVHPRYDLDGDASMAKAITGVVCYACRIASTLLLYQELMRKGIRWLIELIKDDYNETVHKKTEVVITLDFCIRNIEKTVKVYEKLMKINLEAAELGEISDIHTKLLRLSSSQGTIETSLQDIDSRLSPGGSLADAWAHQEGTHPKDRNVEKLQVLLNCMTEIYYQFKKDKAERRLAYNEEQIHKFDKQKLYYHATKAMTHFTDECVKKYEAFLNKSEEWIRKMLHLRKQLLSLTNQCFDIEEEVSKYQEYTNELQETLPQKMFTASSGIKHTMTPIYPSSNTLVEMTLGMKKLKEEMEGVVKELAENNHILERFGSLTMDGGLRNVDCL

CHEK1 (human) = CHEK1 (human) (UniProt O14757)
MAP3K7 TAB1 (human) = MAP3K7 TAB1 (human) (UniProt Q15750+O43318)
[2] = test system: PAK2 (human), Q13177 [T402E]
MAP2K1 (human) = MAP2K1 (human) (UniProt Q02750)
CSK (human) = CSK (human) (UniProt P41240)
EPHB1 (human) = EPHB1 (human) (UniProt P54762)
Chain of EPHB1 (human) (P54762 whole entry, looked up): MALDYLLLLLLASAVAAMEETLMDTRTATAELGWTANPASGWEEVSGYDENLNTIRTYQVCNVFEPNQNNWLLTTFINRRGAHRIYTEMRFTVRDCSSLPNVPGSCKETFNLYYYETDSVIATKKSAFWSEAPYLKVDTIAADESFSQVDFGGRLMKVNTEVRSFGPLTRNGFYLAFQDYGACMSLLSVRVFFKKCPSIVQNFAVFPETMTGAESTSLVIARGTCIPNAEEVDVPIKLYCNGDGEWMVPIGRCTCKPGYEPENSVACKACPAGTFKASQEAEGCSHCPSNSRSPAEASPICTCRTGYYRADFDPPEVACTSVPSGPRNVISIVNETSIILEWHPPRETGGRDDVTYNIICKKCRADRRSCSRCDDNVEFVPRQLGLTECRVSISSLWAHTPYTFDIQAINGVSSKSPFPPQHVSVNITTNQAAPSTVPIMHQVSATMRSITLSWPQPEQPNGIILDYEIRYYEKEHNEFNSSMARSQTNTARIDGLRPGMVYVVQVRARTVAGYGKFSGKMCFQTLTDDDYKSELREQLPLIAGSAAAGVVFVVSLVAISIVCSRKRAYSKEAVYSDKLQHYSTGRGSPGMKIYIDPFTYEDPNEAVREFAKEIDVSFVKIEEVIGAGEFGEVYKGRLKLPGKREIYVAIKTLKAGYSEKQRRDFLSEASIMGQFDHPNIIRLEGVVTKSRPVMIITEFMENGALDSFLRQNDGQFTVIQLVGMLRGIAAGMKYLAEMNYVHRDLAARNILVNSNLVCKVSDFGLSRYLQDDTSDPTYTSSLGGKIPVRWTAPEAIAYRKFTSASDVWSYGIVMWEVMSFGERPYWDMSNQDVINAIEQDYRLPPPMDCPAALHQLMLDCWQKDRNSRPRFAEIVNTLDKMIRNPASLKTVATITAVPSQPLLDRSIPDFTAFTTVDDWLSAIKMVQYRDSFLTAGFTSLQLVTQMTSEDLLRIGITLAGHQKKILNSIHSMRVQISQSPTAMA

AURKB (human) = AURKB (human) (UniProt Q96GD4)
MST4 (human) = MST4 (human) (UniProt Q9P289)
MARK2 (human) = MARK2 (human) (UniProt Q7KZI7)
TTK (human) = TTK (human) (UniProt P33981)
MAP3K11 (human) = MAP3K11 (human) (UniProt Q16584)
Chain of MAP3K11 (human) (Q16584 whole entry, looked up): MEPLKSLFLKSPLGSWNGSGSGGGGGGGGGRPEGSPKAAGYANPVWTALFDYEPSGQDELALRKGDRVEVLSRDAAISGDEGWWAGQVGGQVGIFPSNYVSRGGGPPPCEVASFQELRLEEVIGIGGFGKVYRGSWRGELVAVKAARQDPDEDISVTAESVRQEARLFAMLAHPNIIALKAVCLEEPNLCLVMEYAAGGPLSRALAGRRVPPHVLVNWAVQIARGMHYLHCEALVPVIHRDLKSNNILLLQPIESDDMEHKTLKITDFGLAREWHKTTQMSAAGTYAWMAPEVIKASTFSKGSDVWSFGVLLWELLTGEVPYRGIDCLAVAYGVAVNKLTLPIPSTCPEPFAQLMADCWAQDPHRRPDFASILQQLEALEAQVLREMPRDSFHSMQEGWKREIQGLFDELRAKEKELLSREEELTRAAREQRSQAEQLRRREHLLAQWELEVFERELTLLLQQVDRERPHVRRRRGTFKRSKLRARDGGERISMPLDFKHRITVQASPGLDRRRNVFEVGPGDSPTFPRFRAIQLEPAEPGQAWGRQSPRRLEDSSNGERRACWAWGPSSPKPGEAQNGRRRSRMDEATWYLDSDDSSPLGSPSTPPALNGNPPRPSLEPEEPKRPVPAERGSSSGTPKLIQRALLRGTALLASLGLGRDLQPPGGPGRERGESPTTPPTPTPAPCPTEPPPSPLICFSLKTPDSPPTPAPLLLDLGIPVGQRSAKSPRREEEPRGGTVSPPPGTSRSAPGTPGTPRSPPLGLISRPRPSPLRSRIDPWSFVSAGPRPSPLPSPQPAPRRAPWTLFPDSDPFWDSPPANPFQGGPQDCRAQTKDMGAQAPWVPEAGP

DYRK3 (human) = DYRK3 (human) (UniProt O43781)
CaMK1 (human) = CaMK1 (human) (UniProt Q14012)
MINK1 (human) = MINK1 (human) (UniProt Q8N4C8); details: compound 10.0 µM
TAOK1 (human) = TAOK1 (human) (UniProt Q7L7X3)
PAK4 (human) = PAK4 (human) (UniProt O96013)
Chain of PAK4 (human) (O96013 whole entry, looked up): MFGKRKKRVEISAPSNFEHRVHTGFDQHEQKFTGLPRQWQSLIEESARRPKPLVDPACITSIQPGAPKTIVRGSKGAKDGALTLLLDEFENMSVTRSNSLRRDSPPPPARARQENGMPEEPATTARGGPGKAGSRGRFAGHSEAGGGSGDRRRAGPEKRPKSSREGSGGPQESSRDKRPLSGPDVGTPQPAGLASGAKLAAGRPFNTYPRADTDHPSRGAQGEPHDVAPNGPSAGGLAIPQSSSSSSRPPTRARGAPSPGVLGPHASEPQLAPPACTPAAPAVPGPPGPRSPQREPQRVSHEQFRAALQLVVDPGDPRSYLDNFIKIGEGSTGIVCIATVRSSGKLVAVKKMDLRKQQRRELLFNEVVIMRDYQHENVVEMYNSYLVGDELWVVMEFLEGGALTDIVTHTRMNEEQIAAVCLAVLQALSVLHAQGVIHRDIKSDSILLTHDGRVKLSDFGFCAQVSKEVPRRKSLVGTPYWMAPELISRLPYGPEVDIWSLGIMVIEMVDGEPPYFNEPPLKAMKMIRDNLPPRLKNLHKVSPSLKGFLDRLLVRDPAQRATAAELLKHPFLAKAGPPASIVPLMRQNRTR

EPHA2 (human) = EPHA2 (human) (UniProt P29317)

Chain of EPHB2 (human) (P29323 whole entry, looked up): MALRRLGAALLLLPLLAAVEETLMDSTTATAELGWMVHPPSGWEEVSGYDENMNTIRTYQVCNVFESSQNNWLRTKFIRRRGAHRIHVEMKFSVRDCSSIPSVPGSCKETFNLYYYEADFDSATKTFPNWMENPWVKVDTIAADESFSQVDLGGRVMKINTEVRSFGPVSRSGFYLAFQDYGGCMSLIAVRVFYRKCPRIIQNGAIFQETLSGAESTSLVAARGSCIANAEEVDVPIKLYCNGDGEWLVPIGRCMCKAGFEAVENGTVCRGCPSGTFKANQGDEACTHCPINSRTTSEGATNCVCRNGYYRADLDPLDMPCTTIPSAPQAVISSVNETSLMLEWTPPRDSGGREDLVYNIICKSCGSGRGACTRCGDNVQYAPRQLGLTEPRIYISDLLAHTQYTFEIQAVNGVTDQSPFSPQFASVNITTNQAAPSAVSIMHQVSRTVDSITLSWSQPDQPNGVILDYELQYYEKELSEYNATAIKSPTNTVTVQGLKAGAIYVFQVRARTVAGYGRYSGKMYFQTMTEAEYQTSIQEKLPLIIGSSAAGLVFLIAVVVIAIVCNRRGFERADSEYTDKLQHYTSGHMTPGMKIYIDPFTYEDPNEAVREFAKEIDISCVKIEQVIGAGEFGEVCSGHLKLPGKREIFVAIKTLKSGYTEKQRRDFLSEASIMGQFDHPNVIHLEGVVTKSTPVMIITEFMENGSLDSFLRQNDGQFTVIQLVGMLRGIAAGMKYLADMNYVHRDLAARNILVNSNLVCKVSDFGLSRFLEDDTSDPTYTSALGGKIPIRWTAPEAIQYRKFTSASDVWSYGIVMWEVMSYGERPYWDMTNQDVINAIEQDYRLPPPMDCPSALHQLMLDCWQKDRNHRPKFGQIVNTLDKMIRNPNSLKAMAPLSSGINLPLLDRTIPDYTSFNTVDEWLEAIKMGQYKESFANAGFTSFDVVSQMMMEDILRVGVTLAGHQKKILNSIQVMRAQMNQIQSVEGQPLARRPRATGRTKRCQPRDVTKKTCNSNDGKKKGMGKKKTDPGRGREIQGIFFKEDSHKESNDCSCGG
Chain of IKBKB (human) (O14920 whole entry, looked up): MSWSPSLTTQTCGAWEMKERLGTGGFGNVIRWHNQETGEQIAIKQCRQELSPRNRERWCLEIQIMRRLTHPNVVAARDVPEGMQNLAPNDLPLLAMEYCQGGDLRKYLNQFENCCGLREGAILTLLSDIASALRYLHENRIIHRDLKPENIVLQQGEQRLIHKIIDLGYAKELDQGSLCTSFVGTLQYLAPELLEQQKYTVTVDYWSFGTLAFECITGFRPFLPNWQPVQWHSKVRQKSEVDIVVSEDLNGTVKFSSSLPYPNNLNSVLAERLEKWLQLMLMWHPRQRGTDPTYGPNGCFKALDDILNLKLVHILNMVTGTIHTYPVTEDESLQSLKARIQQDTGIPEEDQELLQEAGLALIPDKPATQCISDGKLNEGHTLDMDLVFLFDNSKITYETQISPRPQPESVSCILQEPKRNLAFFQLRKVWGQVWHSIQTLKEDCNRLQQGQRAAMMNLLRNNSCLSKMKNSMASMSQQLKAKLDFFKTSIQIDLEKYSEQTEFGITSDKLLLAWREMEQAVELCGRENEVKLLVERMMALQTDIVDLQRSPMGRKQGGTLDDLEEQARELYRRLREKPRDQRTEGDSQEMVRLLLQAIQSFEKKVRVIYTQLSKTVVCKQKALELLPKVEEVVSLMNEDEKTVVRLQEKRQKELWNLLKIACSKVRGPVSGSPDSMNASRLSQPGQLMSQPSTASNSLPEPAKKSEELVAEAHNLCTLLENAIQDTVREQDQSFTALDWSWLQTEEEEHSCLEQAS

residual activity (IKBKB (human); compound 10.0 µM): 89%
residual activity (GCK (human); compound 10.0 µM): 80%
residual activity ([1]; compound 10.0 µM): 97%
residual activity (EPHB2 (human); compound 10.0 µM): 102%
residual activity (LCK (mouse); compound 10.0 µM): 93%
residual activity (PAK6 (human); compound 10.0 µM): 109%
residual activity (CDK2 CCNA2 (human); compound 10.0 µM): 88%
residual activity (MAPK10 (human); compound 10.0 µM): 93%
residual activity (EPHA4 (human); compound 10.0 µM): 90%
residual activity (PKN2 (human); compound 10.0 µM): 69%
residual activity (MAPK8 (human); compound 10.0 µM): 88%
residual activity (MYLK (human); compound 10.0 µM): 112%
residual activity (NUAK1 (human); compound 10.0 µM): 90%
residual activity (CHEK2 (human); compound 10.0 µM): 93%
residual activity (RPS6KA3 KD1 KD2 (human); compound 10.0 µM): 86%
residual activity (EPHB3 (human); compound 10.0 µM): 86%
residual activity (ROCK2 (rat); compound 10.0 µM): 95%
residual activity (SRC (human); compound 10.0 µM): 111%
residual activity (TBK1 (human); compound 10.0 µM): 85%
residual activity (CHEK1 (human); compound 10.0 µM): 96%
residual activity (MAP3K7 TAB1 (human); compound 10.0 µM): 98%
residual activity ([2]; compound 10.0 µM): 98%
residual activity (MAP2K1 (human); compound 10.0 µM): 99%
residual activity (CSK (human); compound 10.0 µM): 90%
residual activity (EPHB1 (human); compound 10.0 µM): 117%
residual activity (AURKB (human); compound 10.0 µM): 96%
residual activity (MST4 (human); compound 10.0 µM): 104%
residual activity (MARK2 (human); compound 10.0 µM): 95%
residual activity (TTK (human); compound 10.0 µM): 80%
residual activity (MAP3K11 (human); compound 10.0 µM): 89%
residual activity (DYRK3 (human); compound 10.0 µM): 91%
residual activity (CaMK1 (human); compound 10.0 µM): 92%
residual activity (MINK1 (human)): 89%
residual activity (TAOK1 (human); compound 10.0 µM): 98%
residual activity (PAK4 (human); compound 10.0 µM): 83%
Compound: O=S(=O)(c1ccc(F)c2nonc12)N1CCN(c2ncc(C(F)(F)F)cc2Cl)CC1

residual activity (IKBKB (human); compound 10.0 µM): 84%
residual activity (IKBKB (human); compound 100.0 µM): 91%
residual activity (IKBKB (human); compound 1000.0 µM): 85%
residual activity (GCK (human); compound 100.0 µM): 107%
residual activity ([1]; compound 10.0 µM): 93%
residual activity ([1]; compound 100.0 µM): 94%
residual activity ([1]; compound 1000.0 µM): 103%
residual activity (EPHB2 (human); compound 10.0 µM): 118%
residual activity (EPHB2 (human); compound 100.0 µM): 118%
residual activity (EPHB2 (human); compound 1000.0 µM): 120%
residual activity (EPHA2 (human); compound 10.0 µM): 106%
residual activity (EPHA2 (human); compound 100.0 µM): 124%
residual activity (EPHA2 (human); compound 1000.0 µM): 129%
residual activity (LCK (mouse); compound 10.0 µM): 74%
residual activity (LCK (mouse); compound 100.0 µM): 72%
residual activity (LCK (mouse); compound 1000.0 µM): 84%
residual activity (PAK6 (human); compound 10.0 µM): 90%
residual activity (PAK6 (human); compound 100.0 µM): 98%
residual activity (PAK6 (human); compound 1000.0 µM): 103%
residual activity (CDK2 CCNA2 (human); compound 10.0 µM): 77%
residual activity (CDK2 CCNA2 (human); compound 100.0 µM): 75%
residual activity (CDK2 CCNA2 (human); compound 1000.0 µM): 87%
residual activity (MAPK10 (human); compound 10.0 µM): 103%
residual activity (MAPK10 (human); compound 100.0 µM): 103%
residual activity (MAPK10 (human); compound 1000.0 µM): 100%
residual activity (EPHA4 (human); compound 10.0 µM): 98%
residual activity (EPHA4 (human); compound 100.0 µM): 105%
residual activity (EPHA4 (human); compound 1000.0 µM): 119%
residual activity (PKN2 (human); compound 100.0 µM): 108%
residual activity (PKN2 (human); compound 1000.0 µM): 84%
residual activity (MAPK8 (human); compound 10.0 µM): 99%
residual activity (MAPK8 (human); compound 100.0 µM): 92%
residual activity (MAPK8 (human); compound 1000.0 µM): 109%
residual activity (MYLK (human); compound 100.0 µM): 99%
residual activity (MYLK (human); compound 1000.0 µM): 102%
residual activity (NUAK1 (human); compound 10.0 µM): 97%
residual activity (NUAK1 (human); compound 100.0 µM): 104%
residual activity (NUAK1 (human); compound 1000.0 µM): 101%
residual activity (CHEK2 (human); compound 10.0 µM): 90%
residual activity (CHEK2 (human); compound 100.0 µM): 98%
residual activity (CHEK2 (human); compound 1000.0 µM): 100%
residual activity (RPS6KA3 KD1 KD2 (human); compound 1000.0 µM): 117%
residual activity (EPHB3 (human); compound 10.0 µM): 97%
residual activity (EPHB3 (human); compound 100.0 µM): 105%
residual activity (EPHB3 (human); compound 1000.0 µM): 114%
residual activity (ROCK2 (rat); compound 10.0 µM): 81%
residual activity (ROCK2 (rat); compound 100.0 µM): 89%
residual activity (ROCK2 (rat); compound 1000.0 µM): 98%
residual activity (SRC (human); compound 100.0 µM): 104%
residual activity (SRC (human); compound 1000.0 µM): 103%
residual activity (TBK1 (human); compound 10.0 µM): 89%
residual activity (TBK1 (human); compound 100.0 µM): 100%
residual activity (CHEK1 (human); compound 100.0 µM): 93%
residual activity (CHEK1 (human); compound 1000.0 µM): 97%
residual activity (MAP3K7 TAB1 (human); compound 10.0 µM): 105%
residual activity (MAP3K7 TAB1 (human); compound 100.0 µM): 115%
residual activity (MAP3K7 TAB1 (human); compound 1000.0 µM): 103%
residual activity ([2]; compound 10.0 µM): 101%
residual activity ([2]; compound 100.0 µM): 104%
residual activity ([2]; compound 1000.0 µM): 86%
residual activity (MAP2K1 (human); compound 100.0 µM): 109%
residual activity (MAP2K1 (human); compound 1000.0 µM): 118%
residual activity (CSK (human); compound 10.0 µM): 87%
residual activity (CSK (human); compound 100.0 µM): 82%
residual activity (CSK (human); compound 1000.0 µM): 86%
residual activity (EPHB1 (human); compound 10.0 µM): 101%
residual activity (EPHB1 (human); compound 100.0 µM): 103%
residual activity (EPHB1 (human); compound 1000.0 µM): 104%
residual activity (AURKB (human); compound 10.0 µM): 90%
residual activity (AURKB (human); compound 100.0 µM): 102%
residual activity (AURKB (human); compound 1000.0 µM): 98%
residual activity (MST4 (human); compound 10.0 µM): 95%
residual activity (MST4 (human); compound 100.0 µM): 106%
residual activity (MARK2 (human); compound 10.0 µM): 91%
residual activity (MARK2 (human); compound 100.0 µM): 108%
residual activity (TTK (human); compound 10.0 µM): 98%
residual activity (TTK (human); compound 100.0 µM): 93%
residual activity (TTK (human); compound 1000.0 µM): 93%
residual activity (MAP3K11 (human); compound 10.0 µM): 100%
residual activity (MAP3K11 (human); compound 100.0 µM): 97%
residual activity (DYRK3 (human); compound 10.0 µM): 105%
residual activity (DYRK3 (human); compound 1000.0 µM): 106%
residual activity (CaMK1 (human); compound 10.0 µM): 88%
residual activity (CaMK1 (human); compound 100.0 µM): 96%
residual activity (CaMK1 (human); compound 1000.0 µM): 99%
residual activity (TAOK1 (human); compound 10.0 µM): 91%
residual activity (TAOK1 (human); compound 100.0 µM): 109%
residual activity (TAOK1 (human); compound 1000.0 µM): 123%
residual activity (PAK4 (human); compound 10.0 µM): 76%
residual activity (PAK4 (human); compound 100.0 µM): 88%
residual activity (PAK4 (human); compound 1000.0 µM): 95%
Compound: COC(=O)/C=C/C(=O)OC
